This note sets out measurements from paper PMC9603521, “WYBQ-4: a New Bactericidal Agent against Methicillin-Resistant Staphylococcus aureus” (Microbiology Spectrum, 2022).

SMILES strings stand for the structures.

In one series the test system is rabbit red blood cells. Nature of the series: Hemolytic activity. Type of series: cell-based. Particulars: 0 to 512 μg/mL.
The target of series [1] is T1, PBP2a (Staphylococcus aureus, UniProt P07944). The experiment in a line: PBP2a acylation kinetics, nitrocefin competition assay. Type of series: biochemical, MRSA. The procedure: Please refer to the supplemental material for the kinetic parameters of the interaction between WYBQ-4 and PBP2a and the determination of the rate of diacylation.
Supplementary Method. 1 Determination of the Kinetic Parameters for Interactions of […]
Determination of the kinetic parameters for interactions of WYBQ-4 with PBP2a The kinetic parameters of the interaction of WYBQ-4 with PBP2a were determined as previously described (1). The kinetics of the reaction between PBP2a of MRSA with WYBQ-4 was studied in homogeneous aqueous solution at 37℃ in 25 mM Hepes buffer, pH 7.0, containing 1 M NaCl and the inhibition of PBPs by β-lactams follows this kinetic scheme. […]
In this minimal scheme, E represents PBP2a, EI is the noncovalent preacylation complex, E-I is the covalent acyl-enzyme species, and P denotes the product of E-I hydrolysis and restoration of […]
The typical reactions of β-lactam could be monitored through competition with a chromophoric β-lactam, nitrocefin, or directly in certain cases by fluorescence intensity of protein. In this study, it is proposed to determine the secondary rate constants (k2/Ks) of WYBQ-4 by nitrocefin competition assay. The reaction was conducted in the above buffer, and the reaction system contained PBP2a (2.5 μM) and different concentrations of nitrocefin (20-120 μM). The reaction was carried out in a UV spectrophotometer (PERSEE T600, China) and the change in absorbance at 500 nm was […]
Apparent first-order rate constants for acylation by nitrocefin were determined by fitting the change in absorbance with time to eqn. (1):
A = A0 + ∆εn E0[(1 − exp (−kn∗ t)] + k0N0∆εn Ε0t (1) where A0 is the initial absorbance at 500 nm, ∆εn the change in molar absorption coefficient on nitrocefin hydrolysis (15900 M-1cm-1), E0 the initial enzyme concentration, N0 the initial nitrocefin concentration, kn* the (burst) pseudo-first-order rate constant for acylation of PBP2a by nitrocefin, and k0 the (line) second-order rate constant of a non-specific hydrolysis of nitrocefin in the presence of PBP2a. The second-order rate constants (kn) for acylation were calculated by fitting a plot of the apparent first-order rate constants (kn*) against the concentration of nitrocefin using a linear least-squares method.
Subsequently, nitrocefin (100 μM) was used as a reporter molecule to determine the apparent first-order rate constants for acylation of WYBQ-4 at different concentrations (0-500 μM) in competition assays. In this case, the change in absorbance at 500 nm with time was fitted to eqn.
Α = A + ∆ε E (k∗ ∕ (k∗ + k∗)(1 − exp (−(k∗ + k∗)t)) + k N ∆ε Ε t (2) […]

Series [2] has as its target T1, PBP2a. Nature of the series: Dissociation equilibrium constant (Ks) by BOCILLIN FL method. Type of series: binding, MRSA. As for the experimental part:
Α = A + ∆ε E (k∗ ∕ (k∗ + k∗)(1 − exp (−(k∗ + k∗)t)) + k N ∆ε Ε t (2)
Where kn* is the pseudo-first-order rate constant for acylation by nitrocefin at the concentration (N0) employed (0.1 mM), ki* the pseudo-first-order rate constant for the reaction of PBP2a with the WYBQ-4, E0 the initial enzyme concentration (2.5 µM), and k0 the second-order rate constant of nonspecific nitrocefin hydrolysis. Second-order rate constants (ki) for acylation were calculated from a linear least-squares fit to a plot of the apparent first-order rate constants (ki*) against the concentration of WYBQ-4. All plots were linear for the concentrations of WYBQ-4 used.
Determination of dissociation equilibrium constants (Ks) of WYBQ-4 and PBP2a The dissociation equilibrium constant (Ks) of PBP2a with WYBQ-4 were determined by the BOCILLIN method (2), as previously described. […] Samples (30 μL) were loaded onto a 10% SDS-polyacrylamide gel, which was developed and then observed using a fluorescence imager to calculate the grayscale curve. […]
The deacylation rate constants for wild-type PBP2a were determined using BOCILLIN FL as a reporter molecule. […]
The mixture was diluted 5 times with buffer and incubated at room temperature for different time intervals. […] Grayscale analysis was performed by imageJ and the rate constant k3 for the deacylation reaction of WYBQ-4 with PBP2a was determined based on eqn (3): […]

In the next series the test system is clinical isolate SA1B2B. The experiment in a line: Mouse systemic infection model. The format is in vivo, mice. The settings on record: different doses. As for the experimental part: The S. aureus-induced systemic infection model of mice (6-week-old female C57BL/6J mice) was established as previously described ([46]). […] The mice infected in the same way were treated with physiological saline as an infection control group. The mock group was not infected with S. aureus, and the 7-day mortality of the mice in each group was calculated.

T1 sequence (P07944 whole entry): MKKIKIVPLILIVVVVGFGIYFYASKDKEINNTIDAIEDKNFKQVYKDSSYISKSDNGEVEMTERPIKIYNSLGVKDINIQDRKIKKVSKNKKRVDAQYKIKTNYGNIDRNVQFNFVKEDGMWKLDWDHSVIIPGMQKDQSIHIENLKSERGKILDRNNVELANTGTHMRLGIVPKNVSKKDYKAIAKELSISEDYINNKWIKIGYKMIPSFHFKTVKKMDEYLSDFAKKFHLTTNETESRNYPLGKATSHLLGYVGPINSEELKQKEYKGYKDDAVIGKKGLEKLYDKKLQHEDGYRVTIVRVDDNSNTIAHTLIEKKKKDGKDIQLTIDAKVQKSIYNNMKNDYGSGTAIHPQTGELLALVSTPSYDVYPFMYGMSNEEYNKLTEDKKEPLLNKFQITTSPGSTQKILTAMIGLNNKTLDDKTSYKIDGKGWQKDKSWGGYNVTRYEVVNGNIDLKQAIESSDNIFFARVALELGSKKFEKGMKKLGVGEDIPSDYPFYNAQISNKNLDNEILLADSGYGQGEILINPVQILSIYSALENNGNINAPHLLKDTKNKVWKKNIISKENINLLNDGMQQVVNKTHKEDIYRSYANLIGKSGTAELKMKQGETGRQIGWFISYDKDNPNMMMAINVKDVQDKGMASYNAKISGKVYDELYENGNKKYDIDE

For the compound `C#CCO[C@@]1(NC(=O)CSc2cccc(C)c2)C(=O)N2C(C(=O)O)=C(CSc3nnnn3C)CSC21` (some centres unmarked) [WYBQ-4], in the series on rabbit red blood cells, the hemolytic activity result was “did not show hemolytic activity”. This compound also came in with a k2 on PBP2a [1] (PBP2a acylation) of 4.872 ± 0.14 s^–1 × 10^3. The kinact/KI on PBP2a [1] (pH 7, read-out: k2/ks) stood at 174 ± 8.45 M⁻¹ s⁻¹. Moreover, binding on PBP2a [2] was put at a Kd of 28 ± 1.24 µM. The “protection in systemic infection” value with clinical isolate SA1B2B was “had a protective effect”.
